Assays:
Fms kinase = Fms kinase (Homo sapiens, UniProt P07333); assay: Fms kinase biochemical activity assay (AlphaScreen, biotin-(E4Y)10 phosphorylation); settings: 100 μM ATP; read-out: Biochemical Inhibition IC50 Fms
Method in brief: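 Fms kinase (1 ng/well) phosphorylating 30 nM biotin-(E4Y)10 with 100 μM ATP in 25 mM Hepes pH 7.5, MgCl2/MnCl2, 5% DMSO, 20 min at 30 °C. Phosphotyrosine detected by AlphaScreen streptavidin donor and PY20 acceptor beads; IC50 from signal versus compound concentration.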

BCR-FMS BaF3 cells = biological target: T1, BCR-FMS BaF3 cells (Homo sapiens, UniProt P07333); assay: BaF3 BCR-FMS cell proliferation assay (ATPlite); type: cell-based; settings: read-out: Inhibition of Cell Proliferation IC50, BCR/BaF3 Fms
T1 construct: fused on or other part: P11274 (Breakpoint cluster region protein)
T1 sequence (P07333 582-910): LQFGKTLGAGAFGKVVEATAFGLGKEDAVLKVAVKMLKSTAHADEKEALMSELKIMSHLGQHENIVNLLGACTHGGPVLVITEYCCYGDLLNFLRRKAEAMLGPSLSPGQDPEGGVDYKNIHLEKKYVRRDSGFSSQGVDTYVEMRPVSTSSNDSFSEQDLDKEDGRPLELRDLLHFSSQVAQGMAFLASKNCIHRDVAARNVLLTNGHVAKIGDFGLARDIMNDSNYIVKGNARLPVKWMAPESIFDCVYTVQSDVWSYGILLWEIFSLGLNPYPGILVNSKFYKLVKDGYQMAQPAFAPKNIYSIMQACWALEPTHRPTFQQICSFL
Method in brief: (§1)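 Growth inhibition over 3 days at 37 °C; IC50 from ATPlite luminescence, 8 concentrations (1:3 steps, max 10 μM). BaF3 fusion lines were tested without IL-3.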

BCR-NTRK3 BaF3 cells = biological target: T2, BCR-NTRK3 BaF3 cells (Homo sapiens, UniProt Q16288); assay: BaF3 BCR-NTRK3 cell proliferation assay (ATPlite); type: cell-based; settings: read-out: Inhibition of Cell Proliferation IC50, BCR/BaF3 TrkC
T2 construct: fused on or other part: P11274 (Breakpoint cluster region protein)
T2 sequence (Q16288 whole entry, the tested form may be a part): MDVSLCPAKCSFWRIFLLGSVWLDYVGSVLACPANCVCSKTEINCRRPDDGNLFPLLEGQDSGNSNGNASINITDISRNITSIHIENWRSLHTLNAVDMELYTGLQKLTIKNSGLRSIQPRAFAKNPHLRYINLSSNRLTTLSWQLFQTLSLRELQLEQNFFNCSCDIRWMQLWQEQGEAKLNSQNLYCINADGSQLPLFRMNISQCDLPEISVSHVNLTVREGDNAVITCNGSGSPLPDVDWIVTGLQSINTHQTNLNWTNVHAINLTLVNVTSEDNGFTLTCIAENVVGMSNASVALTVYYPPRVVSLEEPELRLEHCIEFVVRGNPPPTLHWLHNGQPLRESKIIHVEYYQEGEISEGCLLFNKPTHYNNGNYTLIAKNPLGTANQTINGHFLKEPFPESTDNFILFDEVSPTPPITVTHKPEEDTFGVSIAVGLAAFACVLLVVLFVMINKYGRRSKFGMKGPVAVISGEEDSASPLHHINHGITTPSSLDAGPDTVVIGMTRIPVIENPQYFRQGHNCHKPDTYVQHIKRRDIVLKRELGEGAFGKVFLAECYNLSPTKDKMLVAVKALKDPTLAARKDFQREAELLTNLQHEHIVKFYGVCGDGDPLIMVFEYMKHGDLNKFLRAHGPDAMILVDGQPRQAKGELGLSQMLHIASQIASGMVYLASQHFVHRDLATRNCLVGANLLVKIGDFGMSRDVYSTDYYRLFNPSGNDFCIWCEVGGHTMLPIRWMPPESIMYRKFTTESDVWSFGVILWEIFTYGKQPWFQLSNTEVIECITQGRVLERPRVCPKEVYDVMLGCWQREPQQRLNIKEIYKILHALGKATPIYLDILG
Method in brief: as §1

SKNSH cells = assay: SKNSH (human neuroblastoma) cell proliferation assay (ATPlite); type: cell-based; settings: SK-N-SH, read-out: Inhibition of Cell Proliferation IC50, SKNSH
Description: Compounds are assessed in a variety of cell based assays. For example BaF3 cells engineered with any of BCR-FMS, BCR-KIT, BCR-FLT3, BCR-NTRK1, BCR-NTRK2, and BCR-NTRK3, are used in cell proliferation assays to assess inhibitory activity of Fms, Kit, Flt-3, TrkA, TrkB, and TrkC, respectively. An MV-4-11 (leukemia) cell proliferation assay is used to assess inhibitory activity in Flt-3, and SKNSH (human neuroblastoma) cell proliferation assay is used to assess efficacy of Fms/Trk inhibitors. Additional cells may be assayed similarly to assess the efficacy of Fms/Trk inhibitors, such as MiaPaCa (human pancreatic cancer) and Capan-1 (human pancreatic carcinoma) cells. Reagent and assay conditions are as follows: • BaF3 cells: • Maintained in RPMI containing 10% FBS, 1% PenStrep, 1% NEAA, and 1% L-Glutamine, supplemented with 1 mg/mL G418 and 5% WEHI-CM (or recombinant murine IL-3). • Confluent cells are split 1:50 to 1:100 every 3-4 days. • MV-4-11 cells: • Maintained in Iscove's Modified Dulbecco's Medium containing 10% FBS. • Confluent cells are split 1:4 every 3-4 days. • SKNSH cells: RPMI containing 10% FBS. On day 1, cells are counted, then centrifuged in a conical tube for 5 minutes at 1000 rpm. The supernatant is removed and cells are re-suspended as follows: • BaF3: resuspend in growth media +1 mg/mL G418 (without WEHFIL-3) to 2×10^5 cells/mL. • MV-4-11: resuspend in growth media to 5×10^5 cells/mL. • SKNSH: resuspend in growth media to 2×10^4 cells/mL. The cells are plated (50 μL, 150 μL for SKNSH cells) in each well of a 96-well dish (Corning 3610) and incubated at 37° C. in 5% CO2 overnight, cells plated to a final concentration of cells as follows: • BaF3: 10,000 cells per well. • MV-4-11: 25,000 cells per well. • SKNSH: 3,000 cells per well. On day 2, compound at a maximum concentration of 5 mM is serially diluted 1:3 for a total of 8 point titration with DMSO as a control. A 1 μL aliquot of each dilution point is added to 249 μL growth media and 50 μL is added to a well containing cells, providing 10 μM compound for the maximum concentration point. The cells are incubated for 3 days at 37° C. in 5% CO2. For SKNSH cells, a 0.75 μL aliquot of appropriate dilution in DMSO is added to 150 μL of cells. On day 5, ATPlite 1 step Luminescence Assay System (Perkin Elmer #6016739) is brought to room temperature along with the cell cultures. ATPlite is added to each well as follows: • BaF3: 25 μL per well. • MV-4-11: 40 μL per well. • SKNSH: 20 μL per well. The cells are incubated at room temperature for 10 minutes, then luminescence is read on Safire reader. The measured luminescence correlates directly with cell number, such that the reading as a function of compound concentration is used to determine the IC50 value.
It is understood that the results of these assays may vary as assay conditions are varied. Inhibition levels determined under the conditions described herein represent a relative activity for the compounds tested under the specific conditions employed. The cell based assays are likely to show variability due to the complexity of the system and the sensitivity thereof to any changes in the assay conditions. […] Results for compounds that are tested and show substantially no inhibition below the highest tested concentration are represented as “-” in the tables below. In some instances, the compounds were not tested in all of the assays, or assay results were not valid, as indicated by NA in the tables below.

Chain of Fms kinase (P07333 20-972): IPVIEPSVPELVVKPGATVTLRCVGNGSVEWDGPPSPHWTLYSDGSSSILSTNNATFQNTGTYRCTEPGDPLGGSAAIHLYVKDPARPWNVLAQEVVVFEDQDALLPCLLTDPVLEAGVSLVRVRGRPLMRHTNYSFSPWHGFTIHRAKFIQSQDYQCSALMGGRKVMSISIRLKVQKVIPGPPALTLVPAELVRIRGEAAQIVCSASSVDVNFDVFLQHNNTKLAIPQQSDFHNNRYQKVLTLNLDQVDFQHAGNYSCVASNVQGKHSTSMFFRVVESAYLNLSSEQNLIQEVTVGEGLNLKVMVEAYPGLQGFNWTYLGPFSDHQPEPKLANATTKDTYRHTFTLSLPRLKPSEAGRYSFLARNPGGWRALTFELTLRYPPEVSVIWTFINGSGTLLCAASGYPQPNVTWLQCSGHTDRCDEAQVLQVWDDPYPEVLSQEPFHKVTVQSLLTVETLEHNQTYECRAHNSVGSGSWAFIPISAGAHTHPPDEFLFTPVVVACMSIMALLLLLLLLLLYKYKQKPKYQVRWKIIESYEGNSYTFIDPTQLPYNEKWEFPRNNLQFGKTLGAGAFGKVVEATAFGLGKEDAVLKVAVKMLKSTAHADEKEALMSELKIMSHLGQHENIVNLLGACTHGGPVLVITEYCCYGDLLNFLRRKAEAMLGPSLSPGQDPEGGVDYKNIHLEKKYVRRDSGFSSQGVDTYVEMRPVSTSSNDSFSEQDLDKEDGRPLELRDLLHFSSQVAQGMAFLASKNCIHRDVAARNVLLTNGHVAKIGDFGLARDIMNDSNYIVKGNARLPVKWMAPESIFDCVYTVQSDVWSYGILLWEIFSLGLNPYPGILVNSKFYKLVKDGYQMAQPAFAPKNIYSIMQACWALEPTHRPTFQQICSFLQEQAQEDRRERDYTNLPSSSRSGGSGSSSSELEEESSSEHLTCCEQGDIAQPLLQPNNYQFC

| IC50 (Fms kinase) | IC50 (BCR-FMS BaF3 cells) | IC50 (BCR-NTRK3 BaF3 cells) | IC50 (SKNSH cells) | Structure (SMILES) |
| --- | --- | --- | --- | --- |
| < 100 nM | < 100 nM | < 100 nM | < 10000 nM | CNc1ncnc2[nH]cc(C(=O)c3ccc(NC4CCC(F)(F)CC4)nc3Cl)c12 [Compound P-4058, [2-chloro-6-[(4,4-difluorocyclohexyl)amino]-3-pyridyl]-[4-(methylamino)-7H-pyrrolo[2,3-d]pyrimidin-5-yl]methanone] |
| < 100 nM | < 100 nM | < 100 nM | < 1000 nM | O=C(c1ccc(NC2CCC(F)(F)CC2)nc1Cl)c1c[nH]c2ncnc(NC3CC3)c12 [Compound P-4059, [2-chloro-6-[(4,4-difluorocyclohexyl)amino]-3-pyridyl]-[4-(cyclopropylamino)-7H-pyrrolo[2,3-d]pyrimidin-5-yl]methanone] |
| < 10 nM | < 10 nM | < 10 nM | < 100 nM | CCNc1ncnc2[nH]cc(C(=O)c3ccc(Nc4ccc(C5CC5)nc4)nc3F)c12 [Compound P-4060, [6-[(6-cyclopropyl-3-pyridyl)amino]-2-fluoro-3-pyridyl]-[4-(ethylamino)-7H-pyrrolo[2,3-d]pyrimidin-5-yl]methanone] |
| < 10 nM | < 100 nM | < 10 nM | < 1000 nM | O=C(c1ccc(NC2CCC(F)(F)CC2)nc1F)c1c[nH]c2ncnc(NC3CC3)c12 [Compound P-4062, [4-(cyclopropylamino)-7H-pyrrolo[2,3-d]pyrimidin-5-yl]-[6-[(4,4-difluorocyclohexyl)amino]-2-fluoro-3-pyridyl]methanone] |
| < 10 nM | < 100 nM | < 10 nM | < 1000 nM | CNc1ncnc2[nH]cc(C(=O)c3ccc(NC4CCC(F)(F)CC4)nc3F)c12 [Compound P-4063, [6-[(4,4-difluorocyclohexyl)amino]-2-fluoro-3-pyridyl]-[4-(methylamino)-7H-pyrrolo[2,3-d]pyrimidin-5-yl]methanone] |
| < 10 nM | < 100 nM | < 10 nM | < 1000 nM | CCc1ccc(Nc2ccc(C(=O)c3c[nH]c4ncnc(N)c34)c(F)n2)cn1 [Compound P-4065, (4-amino-7H-pyrrolo[2,3-d]pyrimidin-5-yl)-[6-[(6-ethyl-3-pyridyl)amino]-2-fluoro-3-pyridyl]methanone] |
| < 10 nM | < 10 nM | < 10 nM | < 10000 nM | COc1ccc(Nc2ccc(C(=O)c3c[nH]c4ncnc(NCC(F)(F)F)c34)c(F)n2)cn1 [Compound P-4084, [2-fluoro-6-[(6-methoxy-3-pyridyl)amino]-3-pyridyl]-[4-(2,2,2-trifluoroethylamino)-7H-pyrrolo[2,3-d]pyrimidin-5-yl]methanone] |
| < 100 nM | < 100 nM | < 10 nM | < 10000 nM | CNc1ncnc2[nH]cc(C(=O)c3ccc(NC4CCC(F)(F)CC4)nc3)c12 [Compound P-4089, [6-[(4,4-difluorocyclohexyl)amino]-3-pyridyl]-[4-(methylamino)-7H-pyrrolo[2,3-d]pyrimidin-5-yl]methanone] |
| < 100 nM | < 100 nM | < 10 nM | < 1000 nM | O=C(c1ccc(Nc2ccc(C3CC3)nc2)nc1F)c1c[nH]c2ncnc(NCC(F)(F)F)c12 [Compound P-4090, [6-[(6-cyclopropyl-3-pyridyl)amino]-2-fluoro-3-pyridyl]-[4-(2,2,2-trifluoroethylamino)-7H-pyrrolo[2,3-d]pyrimidin-5-yl]methanone] |
| < 100 nM | < 10 nM | < 10 nM | < 100 nM | O=C(c1ccc(Nc2ccc(C(F)(F)F)nc2)nc1F)c1c[nH]c2ncnc(NC3CC3)c12 [Compound P-4091, [4-(cyclopropylamino)-7H-pyrrolo[2,3-d]pyrimidin-5-yl]-[2-fluoro-6-[[6-(trifluoromethyl)-3-pyridyl]amino]-3-pyridyl]methanone] |
| < 10 nM | < 10 nM | < 10 nM | < 1000 nM | CNc1ncnc2[nH]cc(C(=O)c3ccc(Nc4ccc(C(F)(F)F)nc4)nc3F)c12 [Compound P-4092, [2-fluoro-6-[[6-(trifluoromethyl)-3-pyridyl]amino]-3-pyridyl]-[4-(methylamino)-7H-pyrrolo[2,3-d]pyrimidin-5-yl]methanone] |
| < 10 nM | < 100 nM | < 10 nM | < 1000 nM | CNc1ncnc2[nH]cc(C(=O)c3ccc(Nc4ccc(C5CC5)nc4)nc3F)c12 [Compound P-4094, [6-[(6-cyclopropyl-3-pyridyl)amino]-2-fluoro-3-pyridyl]-[4-(methylamino)-7H-pyrrolo[2,3-d]pyrimidin-5-yl]methanone] |
| < 10 nM | < 10 nM | < 10 nM | < 1000 nM | CCc1ccc(Nc2ccc(C(=O)c3c[nH]c4ncnc(NC5CCC5)c34)c(F)n2)cn1 [Compound P-4095, [4-(cyclobutylamino)-7H-pyrrolo[2,3-d]pyrimidin-5-yl]-[6-[(6-ethyl-3-pyridyl)amino]-2-fluoro-3-pyridyl]methanone] |
| < 1000 nM | < 100 nM | > 1000 nM | > 1000 nM | COc1cncc(Nc2ccc(C(=O)c3c[nH]c4ncnc(NCC(F)(F)F)c34)c(F)n2)c1 [Compound P-4103, [2-fluoro-6-[(5-methoxy-3-pyridyl)amino]-3-pyridyl]-[4-(2,2,2-trifluoroethylamino)-7H-pyrrolo[2,3-d]pyrimidin-5-yl]methanone] |
| < 1000 nM | < 100 nM | < 100 nM | < 1000 nM | COc1cncc(Nc2ccc(C(=O)c3c[nH]c4ncnc(NC5CCCCC5)c34)c(F)n2)c1 [Compound P-4104, [4-(cyclohexylamino)-7H-pyrrolo[2,3-d]pyrimidin-5-yl]-[2-fluoro-6-[(5-methoxy-3-pyridyl)amino]-3-pyridyl]methanone] |
| < 100 nM | < 100 nM | < 1000 nM | < 10000 nM | CCCNc1ncnc2[nH]cc(C(=O)c3ccc(Nc4cncc(OC)c4)nc3F)c12 [Compound P-4105, [2-fluoro-6-[(5-methoxy-3-pyridyl)amino]-3-pyridyl]-[4-(propylamino)-7H-pyrrolo[2,3-d]pyrimidin-5-yl]methanone] |

From US8901118B2, “Compounds and methods for kinase modulation, and indications therefor” (Plexxikon Inc., priority 2010, dated 2014)
